One series addresses T1, S1PR4 (Homo sapiens, UniProt O95977).
T1 construct: expressed in transfected cells; host or cells: 293T
T1 sequence (O95977 1-384): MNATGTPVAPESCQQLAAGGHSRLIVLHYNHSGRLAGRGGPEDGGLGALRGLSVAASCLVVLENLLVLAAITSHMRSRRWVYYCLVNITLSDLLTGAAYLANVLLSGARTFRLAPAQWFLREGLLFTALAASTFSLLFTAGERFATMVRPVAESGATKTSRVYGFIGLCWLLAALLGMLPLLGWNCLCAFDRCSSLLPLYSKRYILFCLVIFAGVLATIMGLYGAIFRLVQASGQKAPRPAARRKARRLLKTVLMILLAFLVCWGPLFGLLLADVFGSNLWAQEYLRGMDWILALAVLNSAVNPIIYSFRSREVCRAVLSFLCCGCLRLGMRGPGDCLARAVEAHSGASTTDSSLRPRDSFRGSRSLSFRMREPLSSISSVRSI
In words: S1PR4 internalization and recovery test in S1PR4-293T cells. It is filed as cell-based. To be noted: 1 µM, 37 °C, 1.5 hours; detected immediately, 5 hours or 20 hours after treatment. How it is done:
Therefore, the recovery degree of S1PR4 after internalization caused by Compound 30 was evaluated, and the recovery effect following receptor internalization caused by Compound 30 was assessed in cells with high S1PR4 expression.

The target of the next series is T2, hS1P4-R-79C (Homo sapiens, UniProt O95977, R79C).
T2 construct: expressed in transfected cells; host or cells: CHO
T2 sequence (O95977 1-384 R79C): T1 sequence (O95977 1-384) with R79C
In words: Tango β-arrestin recruitment luciferase assay, Tango-hS1P4-R-79C-CHO (S1PR4 mutant). To be noted: 20 h drug treatment. The format is cell-based. The source says: The Tango assay detects ligand-dependent GPCR activity through the interaction between β-arrestin and GPCRs. […] The NTEV fragment and the tetracycline transactivator (tTA), an artificial transcription factor, are fused at the C-terminus of the GPCR, while the CTEV fragment is fused to human β-arrestin 2. To enhance the stability of the interaction between GPCR and β-arrestin, a short sequence from the C-terminus of the human arginine vasopressin receptor 2 (V2 tail) is inserted between the GPCR and NTEV. The V2 tail contains multiple GRK phosphorylation sites, which strengthen β-arrestin binding upon phosphorylation. The CTEV fragment carries the stabile point mutation S219P and is truncated at residue 221 to remove the autoinhibitory C-terminal tail. Meanwhile, β-arrestin 2 is truncated to lack the entire C-terminal tail (residues 383-410 deleted). This truncation confers robust stimulus-dependent receptor desensitization, thereby improving detection sensitivity compared with wild-type β-arrestin 2. The UAS reporter construct consists of upstream activating sequence (UAS) elements, a minimal CMV promoter, and a tTA-dependent luciferase reporter gene. Therefore, constructing Tango cells requires the co-transfection of the above three plasmids into host cells. Upon GPCR activation and β-arrestin recruitment, the TEV enzyme at the β-arrestin terminus cleaves tTA from the GPCR C-terminus. The released tTA initiates tTA-dependent luciferase transcription, and compound activity is ultimately determined by measuring luminescence intensity.
• 1) Tango cell line from was digested from the culture dish respectively. After cell counting, the cells were plated at a density of 10,000 cells per well with […] into a white opaque 96-well plate (add 60 µL D'Hanks to the surrounding wells), and incubated overnight (20 h) in a 5% CO2 incubator at 37°C. The cell density will reach approximately 90% the next day. • 2) After 20 h, 30 µL of serially diluted compound solution was added to each well. The control group was supplemented with 30 µL F12K complete medium. Each group had three replicate wells. • 3) Samples were collected after 20 h of drug treatment.
(All compounds were tested at a final concentration of 45 µM, with 9 serial dilutions at 5-fold intervals. 1 µM BAF-312 was used as the positive control for S1PR1, and 25 µM BAF-312 was used as the positive control for S1PR4.
On the technique in general: Arrestin recruitment assays detect the binding of arrestin to an activated receptor.

Series [1] can be described thus: Pharmacokinetic property testing in rats. The format is in vivo, SD rats. As to conditions: for Tmax: 3 per group. The source says:
In the structure-activity relationship discussion, the inventors obtained key compound 22. Based on compound 22, the polar head of the compound was modified as chiral pyrrolidine carboxylic acid, yielding selective S1PR4 agonists 30 and 67. We conducted pharmacokinetic property analyses on compounds 22, 30, and 67, respectively.

A further series has as its target T3, hS1P1 (Homo sapiens, UniProt P21453).
T3 construct: expressed in transfected cells; host or cells: CHO
In words: Tango β-arrestin recruitment luciferase assay, Tango-hS1P1-CHO. It is filed as cell-based. The method in brief:
(§1)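 CHO Tango cells (receptor–V2 tail–TEV/tTA fusion, β-arrestin 2–TEV, UAS-luciferase reporter) plated overnight (20 h) at 37°C, then treated 20 h with compounds, top final 45 µM, 9 five-fold dilutions, triplicates. Luciferase luminescence read; BAF-312 positive control at 1 µM (S1PR1) or 25 µM (S1PR4).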

Another series concerns the target T4, S1PR3 (Homo sapiens, UniProt Q99500).
T4 construct: expressed in transfected cells
In words: β-arrestin recruitment, PathHunter CHO-K1-S1PR3 cells. As to conditions: mean ± SD, read-out: EC50. It is filed as cell-based.

The target of a further series is T5, hS1P4 (Homo sapiens, UniProt O95977).
T5 construct: expressed in transfected cells; host or cells: CHO
T5 sequence (O95977 1-384): T1 sequence (O95977 1-384)
In words: Tango β-arrestin recruitment luciferase assay, Tango-hS1P4-CHO. As to conditions: S1PR4; Tango-S1PR4-CHO-K1 cells; mean ± SD; read-out: EC50. The format is cell-based. The method in brief:
as §1

Where [2] appears, read: Sprague-Dawley, rat, in vivo, IV (1 mg/kg), male SD rats.
[3] abbreviates: Sprague-Dawley, rat, in vivo, PO (10 mg/kg), male SD rats.
[4] abbreviates: β-arrestin recruitment, 20 h drug treatment, top 45 µM, 9 serial 5-fold dilutions, positive control 1 µM BAF-312, read-out: Tango-hS1P1-CHO EC50.

Structures are written as SMILES. Numbering of substitutions follows the chain as printed. Read-outs that look alike come from different tables or passages of the source.

T3 sequence (P21453 whole entry): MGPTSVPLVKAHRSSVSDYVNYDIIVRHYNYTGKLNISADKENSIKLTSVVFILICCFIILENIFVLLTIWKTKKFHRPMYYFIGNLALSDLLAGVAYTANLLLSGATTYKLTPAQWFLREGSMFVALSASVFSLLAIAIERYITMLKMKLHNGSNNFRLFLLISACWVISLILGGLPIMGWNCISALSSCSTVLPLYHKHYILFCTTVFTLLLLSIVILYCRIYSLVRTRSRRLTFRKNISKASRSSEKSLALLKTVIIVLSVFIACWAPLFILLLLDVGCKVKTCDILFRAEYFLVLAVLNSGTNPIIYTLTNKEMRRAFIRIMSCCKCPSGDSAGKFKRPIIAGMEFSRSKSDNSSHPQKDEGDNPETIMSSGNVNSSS
T4 sequence (Q99500 whole entry, species assumed): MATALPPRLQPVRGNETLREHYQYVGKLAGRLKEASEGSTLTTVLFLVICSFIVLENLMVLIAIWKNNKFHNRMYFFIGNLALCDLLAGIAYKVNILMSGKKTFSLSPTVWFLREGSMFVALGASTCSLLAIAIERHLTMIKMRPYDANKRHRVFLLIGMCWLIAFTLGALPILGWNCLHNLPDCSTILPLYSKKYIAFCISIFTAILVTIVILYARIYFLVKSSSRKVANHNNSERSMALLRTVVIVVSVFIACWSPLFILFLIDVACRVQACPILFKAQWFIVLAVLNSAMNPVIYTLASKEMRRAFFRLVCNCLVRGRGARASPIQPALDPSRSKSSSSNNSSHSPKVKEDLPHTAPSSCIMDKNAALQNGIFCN

As to `CCc1cc(/C(C)=N/OCc2ccc(C3CCCCC3)c(C(F)(F)F)c2)ccc1CN1CC(C(=O)O)C1` [BAF312], the “S1PR4 internalization (expression of S1PR4 receptor on the cell surface)” value on S1PR4 is reported as “cannot induce S1PR4 internalization”.

The term EC50 denotes the concentration that produces a half-maximal response. Broadly, the AUC(0-t) is the area under the concentration-time curve up to a stated or last time point. A word on the Cmax: it is the maximum level reached in the sampled fluid or tissue. What is called half-life is the time needed for the level to fall by half in the phase considered. High values mean slow decline, low ones rapid decline. The term Tmax denotes the time at which the peak concentration occurs. For orientation: bioavailability means dose-corrected exposure relative to a reference, in per cent. `CCc1cc(/C(C)=N/OCc2ccc(-c3ccccc3)c(C)c2)ccc1CN1CC(C(=O)O)C1` [Compound 22, (E)-1-(2-ethyl-4-(1-((2-methyl-[1,1'-biphenyl]-4-yl)methoxy)imino)ethyl)azetidine-3-carboxylic acid] returned an EC50 at hS1P4-R-79C of 27 nM. In addition, in series [1] (IV (1 mg/kg), male SD rats), the “CL_obs” value came to 34.7 ± 3.17 mL/min/kg and the “Vss_obs” value is 0.88 ± 0.07 L/kg. Also, in series [1] (PO (10 mg/kg), male SD rats), the “CL_obs” value is 148 ± 64.3 mL/min/kg and the “Vss_obs” value was 27.73 ± 16.85 L/kg. In series [1] (setting [2]), the AUC(0-t) came out at 476 ± 43.6 ng·h/mL, the Cmax was determined as 995 ± 53.2 ng/mL, the half-life was 25.2 ± 1.8 min and the Tmax was determined as 4.8 min. Also, in series [1] (setting [3]), the AUC(0-t) amounted to 1120 ± 400 ng·h/mL, the Cmax came out at 544 ± 221 ng/mL, the half-life is 130 ± 57.6 min and the Tmax came to 49.8 ± 17.4 min. For the same compound, in series [1] (male, Sprague-Dawley, rat, in vivo, oral, 10 mg/kg), the bioavailability was 23.5%. In addition, the “F (%)” value in series [1] (oral bioavailability, PO 10 mg/kg vs IV 1 mg/kg, male SD rats) is reported as 23.5%.

Take `CCc1cc(/C(C)=N/OCc2ccc(-c3ccccc3)c(C)c2)ccc1CN1CC[C@@H](C(=O)O)C1` [Compound 29]: the EC50 on hS1P1 (setting [4]) is 169 nM; on hS1P4-R-79C it was 87.2 nM.

With `CCc1cc(/C(C)=N/OCc2ccc(-c3ccccc3)c(C)c2)ccc1CNCCC(=O)O` [Compound 31], the EC50 on hS1P1 (setting [4]) is 128 nM; at hS1P4-R-79C, 73.1 nM.

As to `CCCCCCCCCCCCC/C=C/[C@@H](O)[C@@H](N)COP(=O)(O)O` [Compound S1P, Sphingosine-1-phosphate, reference compound], the EC50 at hS1P1 (S1PR1, Tango-S1PR1-CHO-K1 cells, mean ± SD, read-out: EC50) is 8.52 ± 1.06 nM; at S1PR3, 20.6 ± 3.37 nM; at hS1P4 it was 100 ± 21.9 nM. The “S1PR4 internalization (expression of S1PR4 receptor on the cell surface)” value on S1PR4 was “can induce S1PR4 internalization, with receptor expression recovering after 20 hours”.

The values are drawn from patent EP4790048A1, “S1PR4 REGULATOR COMPOUND FOR AUTOIMMUNE DISEASE TREATMENT AND APPLICATION THEREOF” (Shengyuan Zetong (Shanghai) Pharmaceutical Co., Ltd, priority 2023, dated 2025).
